{
  "source": "patent US9518976B2",
  "about": "“Methods for identifying or assaying for agents that increase beta-cell proliferation, insulin secretion, insulin sensitivity, glucose tolerance and decrease fat mass” (The Trustees of Columbia University in The City of New York, priority 2006, dated 2016)",
  "key": {"WT islets": {"system": "WT islets", "experiment": "Insulin and Cyclin D1 expression in WT islets cultured with uncarboxylated osteocalcin", "assay_type": "cell-based, mouse", "conditions": "0.3 ng/ml (FIG. 7L)", "from_the_text": "(§1) FIG. 7. Esp−/− Mice Are a Model of Increased Osteocalcin Bioactivity. (A-G) Comparison between 6-week-old WT, Esp−/, Ocn+/−, and Esp−/−; Ocn+/− mice. (A) Blood glucose levels. (B) Serum insulin levels. (C) Serum adiponectin levels. (D) GTT. (E) ITT. (F) GSIS test. (G) Quantification of the number of Ki67-immunoreactive cells in pancreatic islets. […] (J) Expression of Adiponectin in WT adipocytes cocultured with osteoblasts treated with warfarin or vehicle. (K) Expression of Adiponectin in WT adipocytes cultured in presence of vehicle or of 1 ng/ml of commercially available carboxylated osteocalcin (Immunotopics) or bacterially produced uncarboxylated osteocalcin. (L) Expression of Insulin and Cyclin D1 in WT islets cultured in presence of 0.3 ng/ml of bacterially produced uncarboxylated osteocalcin or vehicle. (M) Metabolic parameters and total serum osteocalcin levels in control and obese patients. (N-O) Quantification of carboxylated osteocalcin (HA-bound osteocalcin) in control and obese patients. In (A)-(C) and (G)-(L): *p<0.05 versus WT (Student's t test); in (D)-(F), °p<0.05 versus WT and *p % 0.001 versus WT (ANOVA followed by post hoc analysis).\nIslets were isolated using a Histopaque gradient (1077, Sigma). In brief, after clamping the common bile duct at its entrance to the duodenum, 1 mg/ml collagenase P (Sigma) in M199 medium (GIBCO) was injected into the duct. […]"}, "[1]": {"experiment": "Osteocalcin subcutaneous infusion in wt mice: body weight and gonadal fat pad mass", "assay_type": "in vivo, mouse", "method": "FIG. 13. […] 1) Indicated doses of recombinant osteocalcin or PBS were infused subcutaneously for 28 days in wt mice. Body weight was recorded at indicated days. (2). Gonadal fat pad mass was measured after 28 days.\nIn another in vivo experiment, the effect of uncarboxylated osteocalcin on body weight and fat pad mass was monitored (FIG. 13). Wild type mice were infused subcutaneously for 28 days with PBS or uncarboxylated osteocalcin at 0.3, 1 or 3 ng/hour. […] (FIG. 13) Gonadal fat pad mass, measured after 28 days, decreased by about % 18 with 3 ng/hour uncarboxylated osteocalcin treatment."}, "Wild type mice": {"system": "Wild type mice", "experiment": "Osteocalcin subcutaneous infusion in wt mice: glucose tolerance after glucose injection", "assay_type": "in vivo, mouse", "conditions": "0.3 or 3 ng/hour s.c. for 14 days, then single glucose injection, 120 minute period, vs PBS", "method": "FIG. 11. […] Wt mice were infused subcutaneously with indicated doses of recombinant osteocalcin or PBS for 14 days before receiving a single injection of glucose. Blood glucose was measured thereafter at indicated times.\nFor glucose tolerance test (GTT), glucose (2 g/kg body weight (BW)) was injected intraperitoneally (IP) after an overnight fast and blood glucose was monitored using blood glucose strips and the Accu-Check glucometer (Roche) at indicated times. For glucose stimulated insulin secretion test (GSIS), glucose (3 g/kg BW) was injected IP after an overnight fast; sera were collected from tails and insulin measured as described (Mauvais-Jarvis et al., 2000). For insulin tolerance test (ITT), mice were fasted for six hours, injected IP with insulin (0.2 U/kg BW) and blood glucose levels were measured at indicated times as described (Mauvais-Jarvis et al., 2002). ITT data are presented as percentage of initial blood glucose concentration. […] Streptozotocin ([…] single injection, Sigma) was injected IP and blood glucose measured as described above every 2 days thereafter. […] Food intake was measured using metabolic cages as the daily change of food weight. Energy expenditure was measured using metabolic cages connected to a calorimeter (Columbus Instrument). Heat values (Kcal/Hr) were recorded over 2 days and reported to each mouse BW. […]"}, "Wild type adipocytes": {"system": "Wild type adipocytes", "experiment": "Adiponectin expression in wt adipocytes treated with osteocalcin (real time PCR)", "assay_type": "cell-based, mouse", "conditions": "wild type adipocytes treated for 4 hours; real time PCR; vs vehicle", "from_the_text": "as §1\nFIG. 15. […] Wt adipocytes were treated for 4 hours with recombinant full-length osteocalcin (1-46) or a truncated form (1-36) or vehicle. Adiponectin expression was then quantified by real time PCR.\nPrimary adipocytes were isolated from epididymal fat pads by collagenase digestion. Briefly, minced adipose tissue was digested by 1 mg/ml collagenase P in KRP Buffer (20 mM HEPES, 120 mM NaCl, 6 mM KCl, 1.2 mM MgSO4, 1 mM CaCl2, 0.6 mM Na2HPO4, 0.4 mM NaH2PO4, 2.5 mM D-glucose, 2% BSA, pH 7.4) for 1 h at 37° C. The isolated cells were washed twice with KRP Buffer before being cultured in αMEM/1% FBS at 37° C. in 5% CO2.\nAll gene expression analyses were performed using real time PCR. DNAse I-treated total RNA was converted to cDNA with the SuperScript III kit (Invitrogen). Real-time PCR were performed using the Taq SYBR Green Supermix with ROX (Biorad) on an MX3000 instrument (Stratagene); beta-actin amplification was used as an internal reference for each sample. All primers were from SuperArray.\nExperiments were performed to test whether truncated osteocalcin was as effective as full-length uncarboxylated osteocalcin in stimulating adiponectin secretion from mouse adipocytes in vitro. Wild type adipocytes were treated for 4 hours with recombinant full-length osteocalcin (1-46) or a truncated form (1-36) (having a deletion of the […] ten amino acids from the C-terminal end) or vehicle. Adiponectin expression was then quantified by real time PCR. […]"}},
  "note": "Ends that are not written are not given here.",
  "data": [
    {"substance": "uncarboxylated osteocalcin: Recombinant mouse osteocalcin bacterially produced, cleaved from GST with thrombin; completely undercarboxylated at all three sites (YLGASVPSPDPLEPTREQCELNPACDELSDQYGLKTAYKRIYGITI; not fully specified; ends and bridges not checked; UniProt P86546 50-95, looked up)", "values": [
      {"measurement": "expression of Cyclin D1, marker of beta-cell proliferation", "setting": "WT islets", "result": "induced"},
      {"measurement": "insulin expression", "setting": "WT islets", "result": "induced"},
      {"measurement": "gonadal fat pad mass decrease", "setting": "[1]; wild type mice, 3 ng/hour s.c., after 28 days", "result": "~18", "unit": "%"},
      {"measurement": "body weight", "setting": "[1]; wild type mice, 0.3, 1 or 3 ng/hour s.c. for 28 days, highest dose most effective", "result": "slightly reduced"},
      {"measurement": "gonadal fat pad mass", "setting": "[1]; wild type mice, the other doses (0.3, 1 ng/hour), 28 days", "result": "did not significantly decrease"},
      {"measurement": "fat mass", "setting": "[1]; wt mice, indicated doses s.c. for 28 days (FIG. 13 legend)", "result": "decreases fat mass"},
      {"measurement": "glucose tolerance", "setting": "Wild type mice", "result": "increased glucose tolerance"},
      {"measurement": "glucose tolerance", "setting": "Wild type mice; listed as recombinant osteocalcin", "result": "increases glucose tolerance"},
      {"measurement": "Adiponectin expression increase", "setting": "Wild type adipocytes", "result": "~1.5", "unit": "fold"}
    ]}
  ]
}
